Test results: patent publication EP2292587A1, “PHARMACEUTICAL COMPOSITION FOR INHIBITING THE TRANSCRIPTION FACTOR INDUCIBLE BY HYPOXIA, MODULATORS OF PATHOLOGICAL PROCESSES OF ANGIOGENESIS, ONCOGENESIS, INFLAMMATION, APOPTOSIS, AND CELLULAR THERAPY” (Fundacion De La Comunidad Valenciana Centro De …, priority 2008, dated 2009)

Key:
JUNB = assay: selectivity luciferase assay, Hek 293-CRE-LUC; type: cell-based; settings: 0-1 µM, 6 hours
Experimental: The selectivity assays with the active compound FM19G11 were performed in white 96-well plates using the recombinant strains Hek 293-TRE-LUC and Hek 293-CRE-LUC which represent the transcriptional activity of transcription factors of the AP-1 complex. The luciferase assay for measuring transcriptional activity was performed using the kit Bright-Glo™ Luciferase Assay System (Promega, Inc., Madison, WI), following the instructions supplied by the manufacturer and the Hek 293-TRE-LUC and Hek 293-CRE-LUC lines contain the response elements of transcription factors of the AP-1 complex, specifically of c-FOS and JUNB, respectively. The Hek 293-TRE-LUC and Hek 293-CRE-LUC lines were provided by Dr. Rosa Farrás.

HIF-1α = assay: Western blot of HIF-1alpha in dental pulp stem cells; type: cell-based, human; settings: 0.5 µM, physical hypoxia
Description: The culture medium used was Low-Glucose DMEM supplemented with 10% fetal bovine serum. The human dental pulp mesenchymal stem line [Gronthos S, et al., "Postnatal human dental pulp stem cells (DPSCs) in vitro and in vivo" Proc Natl Acad Sci U S A, 2000 Dec 5; 97(25):13625-30.; Gronthos S et al.,." Stem cell properties of human dental pulp stem cells" J Dent Res, 2002 Aug; 81(8):531-5], obtained from human third molars from adults (19-29 years of age), was provided by the Cardioregeneration Dept. of the CIPF. The cells were seeded at a density of 2000 cells/cm^2, and when they reached a 90% confluence they were subcultured again by means of trypsinization.
The dental pulp cells were seeded at 2000 cells/cm^2 in 21 cm^2 plates. […]

[1] = tested on: Sox2, Oct4, Nanog, TGF-alpha, Notch1; assay: expression of undifferentiated state markers in epSPCs (sqPCR, Western blot); type: cell-based, rat
Experimental: The primary culture of adult spinal cord ependymal neural progenitors (epSPC) was performed according to the conditions already set forth in Example 35.1.
Detection of the transcriptional and transductional expression levels of genes responsible for maintaining the undifferentiated state, Sox2, Oct4, Nanog, TGF-alpha: Total RNA was isolated using the commercial kit RNAeasy (Qiagen) and following the manufacturer's instructions. 1 µg of total RNA of each sample was retrotranscribed using the commercial kit Reverse Transcription Reagent (Applied Biosystem). The semiquantitative polymerase chain reaction (sqPCR) was carried out using the primers detailed below, for the amplification of the messenger RNAs of Sox2, Oct4, Nanog, TGF-alpha and GAPDH. The sqPCR was developed in an Eppendorf thermal cycler in a final volume of 50 µl, using 1 U of Taq Polymerase, 40 ng of cDNA (equivalent amount of total RNA), and 300 nM of each primer. The program chosen for the amplification was: [95°C, 3 min] x1, [55°C, 30 sec, 72°C, 5 min, 95°C 30 sec] x 35 and 72°C 10 min. The expression levels were viewed in a 1% agarose gel in 1x TAE buffer stained with ethidium bromide. The changes of expression due to the loading difference were corrected by the differential expression of the GAPDH constitutive expression gene. The experiments were performed in triplicate (with cells from three different rats).
The levels of proteins of the undifferentiated state markers Sox2, Oct4, Nanog and Notch1 were determined by immunological analysis (Western Blot) following the methodology described in Example 35.1. The primary antibodies for the detection of Sox2, Oct4, Nanog and Notch1 were acquired from Abcam (UK) and the expression of beta-actin (antibody acquired in Sigma Aldrich Co., UK) served as a loading control.

[2] = tested on: AKT/mTOR/p70S6/Cyclin D1 signaling pathway; assay: activation kinetics of mTOR signaling pathway, HCT116/p53+/+; type: cell-based, human; settings: 0.5 µM
Experimental: Due to the crucial role of p53 as a tumor-suppressing agent, it was analyzed in HCT116 cells how FM19G11 affected the activation kinetics of proteins involved in favoring cell cycle progress, specifically the mTOR cell signaling pathway. An increase of cell progress can be due to replicative stress which generates DNA damage (Bartkova, J, Horejsi, Z, Koed, K, Kramer, A, Tort, F, Zieger, K et al., (2005) DNA damage response as a candidate anti-cancer barrier in early human tumorigenesis. Nature 434: 864-70; Bartkova, J, Rezaei, N, Liontos, M, Karakaidos, P, Kletsas, D, Issaeva, N et al., (2006) Oncogene-induced senescence is part of the tumorigenesis barrier imposed by DNA damage checkpoints. Nature 444: 633-7; Di Micco, R, Fumagalli, M, Cicalese, A, Piccinin, S, Gasparini, P, Luise, C et al., (2006) Oncogene-induced senescence is a DNA damage response triggered by DNA hyper-replication. Nature 444: 638-42), it was explored if the DDR triggered by FM19G11 was related to an increase of the cell cycle progress signal modulated by the mTOR signaling pathway. […]

Structure (SMILES): Cc1ccc(C(=O)COC(=O)c2cccc(NC(=O)c3ccc([N+](=O)[O-])cc3[N+](=O)[O-])c2)cc1 [FM19G11, 2-oxo-2-(p-tolyl)ethyl 3-((2,4-dinitro)benzamido)benzoate]
- transcriptional levels of Hek 293-CRE-LUC (JUNB): not affected in any case
- expression of HIF-1α (HIF-1α): inhibited
- messenger RNA of Sox2 and Oct4 and their target genes Nanog and TGF-α ([1]; 500 nM, 48 hours, 1% O2): down-regulation
- expression of Sox2, Oct4, Nanog and Notch1 ([1]; 500 nM, 48 hours, normoxic (~20% O2)): significantly induces
- expression of both proteins, Sox2 and Oct4 ([1]; increasing concentrations, 1% O2): inhibits in a dose-dependent manner
- expression of the two isoforms of HIFα, p300, Sox2, Oct3/4 in ependymal cells ([1]; physical hypoxic conditions): decrease
- activation of the AKT/mTOR/p70S6/Cyclin D1 signaling pathway (fold change) [2]: ≥ 2
